# In paper PMC10305119, “Analogs of 6-Bromohypaphorine with Increased Agonist Potency for α7 Nicotinic Receptor as Anti-Inflammatory Analgesic Agents” (Marine Drugs, 2023):
# Entries after “also recorded” stand apart in the source; their conditions may differ. Like-named read-outs stand apart in the source and are kept apart here.
# Legend:
# human α7 nAChR = target: T1, human α7 nAChR (Homo sapiens, UniProt P36544); experiment: Calcium fluorescence assay on α7 nAChR expressed in Neuro2a cells, in the presence of PNU120596; type: cell-based; settings: for α7 nAChR agonistic activity: at concentrations up to 1 mM, PNU 120,596 present
# T1 construct: expressed in transfected cells; host or cells: mouse neuroblastoma Neuro2a, transient co-transfection with Ric-3 (Ric3-pCMV6-XL5, OriGene) and the calcium sensor Case12
# Method: A panel of the synthesized compounds was tested to determine their activity on α7 nAChR by fluorescence detection of cytoplasmic calcium rise (Figure 2a).
# Mouse neuroblastoma Neuro2a cells were purchased from the Russian collection of cell cultures (Institute of Cytology, Russian Academy of Sciences, Saint Petersburg, Russia). Cells were cultured in Dulbecco’s modified Eagle’s essential medium (Paneco, Moscow, Russia) supplemented with 10% fetal bovine serum (Sigma, St. Louis, MO, USA). The cells one day before transfection were subcultured and plated at a density of 10,000 cells per well on a 96-well plate. The next day, Neuro2a cells were transiently transfected with plasmids coding α7 nAChR (human α7 nAChR-pCEP4) or its mutants, the chaperone Ric-3 (Ric3-pCMV6-XL5, OriGene, USA) and a fluorescent calcium sensor Case12 (pCase12-cyto vector, Evrogen, Russia) in molar ratio 4:1:1. Lipofectamine transfection protocol (Invitrogen, Waltham, MA, USA) was performed as recommended by the manufacturer. Transfected cells were grown at 37 °C in a CO2 incubator for 48 h.
# Calcium […] assay was performed as described previously. Briefly, Transfected Neuro2a cells were grown on black 96-well plates (Corning, Somerville, MA, USA) at 37 °C in a CO2 incubator for 72 h, then growth medium was substituted with buffer containing 140 mM NaCl, 2 mM CaCl2, 2.8 mM KCl, 4 mM MgCl2, 20 mM HEPES, 10 mM glucose; pH 7.4.
# Cells were incubated with the α7 nAChR positive allosteric modulator PNU120596 (10 μM, Tocris, Bristol, UK) for 20 min at room temperature before the addition of tested compounds. Plates were measured in microplate reader Hidex Sence (Hidex, Turku, Finland) using excitation at 485 nm and emission at 535 ± 10 nm. Fluorescence peak intensity in each well was expressed as a percentage of the maximal obtained response. Data files were analysed using Hidex Sence software (Hidex, Turku, Finland). Controls were run in the presence of 4 μM α-cobratoxin.
# The R statistical programming environment “https://www.r-project.org/” (accessed on 16 June 2023) was used to analyze the results. Base R graphics and ggplot2 [54] graphical library were used for the data visualisation. Dose-response curves were fitted using “nlm” function and the following equation: response ~ (100/1 + (EC50/x)^n), where x denotes base 10 logarithm of ligand concentration in moles per liter (normalized to 1M) and n is the Hill coefficient. Libraries “rgl” “https://CRAN.R-project.org/package=rgl” (accessed on 16 May 2023) and “barplot3d” “https://cran.r-project.org/src/contrib/Archive/barplot3d/” (accessed on 16 May 2023) were used to generate the 3D bar chart shown on Figure 2b.
# Figure 2 In vitro activity determination of the synthesized compounds. […] The receptor activation was detected as an increase in fluorescent signal in cell cytoplasm by fluorescence microscopy or as total fluorescence of the well in 96-well plate reader setup. Normalized fluorescence amplitude was plotted against base 10 logarithm of mole per liter concentration of the tested agonist and EC50 values were than calculated using dose-response equation. […] Substitutions in the 6th position of the indole ring (designated as X) were halogens (green shadow), hydrogen bond acceptors (yellow shadow) or hydrogen bond donors (blue shadow). Carboxy group modifications were comprised by free acid (Q = OH), ethers (Q = OCH3, OC2H5), and amides (Q = NH2, NHCH3).
# CFA-induced inflammation = CFA-induced inflammation test; type: in vivo, ICR mice; settings: mice; for analgesia in hot plate test: 2 h after injection, 53 °C, doses 0.1, 0.5, 1 mg/kg; for oedema (paw diameter): intramuscular 0.1, 0.5, 1 mg/kg, measured 6-48 h
# Method: Anti-inflammatory effect of two analogs of 6-substituted hypaphorine (6ND and 6ID) was tested in a model with subplantar administration of complete Freund’s adjuvant (CFA) in mice. CFA was injected once into the footpad to induce oedema in 24 h. Oedema was measured with an electronic calliper. Immediately after paw measurement, 6ND or 6ID was injected intramuscularly in doses 1, 0.5, and 0.1 mg/kg. Paws were measured at 6, 12, 24, and 48 h after administration of 6ND or 6ID. […] End points at 48 h of drug treatments at dose […] have been analyzed in terms of paw diameter normalized to the maximal oedemic levels in each group (Figure 6d).
# Additionally, after 2 h following the drug injection, the analgesia test was conducted on the “hot plate” preheated to 53 °C. The time of withdrawal or licking of the affected paw was assessed for each animal.
# The development of the inflammation and thermal hyperalgesia of the paw was induced by the injection of the oil/saline (1:1) CFA emulsion (Sigma-Aldrich, St. Louis, MO, lot # WH327536) into the subplantar surface of the hind paw of the ICR mice (20 µL/paw) 24 h before the measurement. Oedema was measured with an electronic calliper. Immediately after paw measurement, 6ND or 6ID were injected intramuscularly in doses: 1, 0.5, and 0.1 mg/kg. Paws were measured at 6, 12, 24, and 48 h after administration of 6ND or 6ID. After 2 h following the drug injection, the inflamed paw withdrawal or licking latencies to thermal stimulation were measured on a hot plate device (Hot Plate Analgesia Meter, Columbus Instruments) with a set temperature of 53 ± 0.1 °C and a cut-off time of 60 s.
# T1 sequence (P36544 23-502): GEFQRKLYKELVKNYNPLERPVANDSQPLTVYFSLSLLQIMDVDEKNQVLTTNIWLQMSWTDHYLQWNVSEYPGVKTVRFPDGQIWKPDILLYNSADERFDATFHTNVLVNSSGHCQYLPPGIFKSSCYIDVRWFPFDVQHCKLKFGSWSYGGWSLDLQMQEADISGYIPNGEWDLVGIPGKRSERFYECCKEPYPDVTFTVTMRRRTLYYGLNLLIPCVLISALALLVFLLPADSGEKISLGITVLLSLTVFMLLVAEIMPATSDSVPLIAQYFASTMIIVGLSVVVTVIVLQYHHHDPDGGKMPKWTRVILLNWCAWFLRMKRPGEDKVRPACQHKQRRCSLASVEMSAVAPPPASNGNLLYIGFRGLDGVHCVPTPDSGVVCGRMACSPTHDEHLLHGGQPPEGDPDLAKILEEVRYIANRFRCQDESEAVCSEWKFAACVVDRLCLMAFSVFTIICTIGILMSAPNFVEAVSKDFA
compound,measurement,setting,value
"C[N+](C)(C)[C@H](Cc1c[nH]c2ccccc12)C(=O)[O-] [Compound 16, L-hypaphorine, reference compound]",α7 nAChR agonistic activity,human α7 nAChR; listed as Hypaphorine,did not show α7 nAChR agonistic activity
same,α7 nAChR agonistic activity,human α7 nAChR; listed as L-hypaphorine,failed to activate α7 nAChR
same,EC50,"human α7 nAChR; human α7 nAChR in Neuro2a cells, PNU120596 10 μM present",no agonistic activity
same,analgesia in hot plate test,CFA-induced inflammation,analgesia in hot plate test at all tested doses from 0.1 to 1 mg/kg
same,"oedema reduction at 48 h end point, normalized to maximal oedema","CFA-induced inflammation; dose 0.5, 48 h",markedly less effective reduction of oedema than 6ND and 6ID
same,oedema (paw diameter),CFA-induced inflammation; listed as Hypaphorine,demonstrated anti-oedemic properties
same,oedema (paw diameter),CFA-induced inflammation; listed as hypaphorine,significantly reduced edema in a concentration-dependent manner at doses 0.1–1 mg/kg
"COC(=O)C(Cc1c[nH]c2cc([N+](=O)[O-])ccc12)[N+](C)(C)C (stereo not drawn) [Compound 5, methyl ester of 6-nitrohypaphorine]",EC50,"human α7 nAChR; human α7 nAChR in Neuro2a cells, PNU120596 10 μM present, read-out: EC50",14 µM
same,analgesia in hot plate test,CFA-induced inflammation; listed as 6ND,"significant analgesia in hot plate test only at 0.1 mg/kg; also recorded: at a dose of 0.1 mg/kg has a pronounced analgesic effect, but higher doses did not show a difference from the control group"
"COC(=O)[C@@H](Cc1c[nH]c2cc(I)ccc12)[N+](C)(C)C [Compound 1, (D)-6-iodohypaphorine methyl ester]",EC50,human α7 nAChR,0.61 µM
same,analgesia in hot plate test,CFA-induced inflammation; listed as 6ID,effective in the hot plate test at 0.5 as well as at 1 mg/kg; also recorded: at doses 0.5 and 1 mg/kg showed significant analgesia
same,oedema (paw diameter),CFA-induced inflammation; listed as 6ID,significantly reduced by 6ID at 0.5 mg/kg starting from 12 h of treatment; also recorded: effective against oedema at doses 0.5 and 1 mg/kg
